By melting point is commonly meant the temperature of the solid-liquid transition. Usually IC50 stands for the concentration needed to halve the response being measured.

The source of these data is patent US7244727B2, “Fused bicyclic nitrogen-containing heterocycles” (Japan Tobacco Inc., priority 2002, dated 2007).

SMILES strings stand for the structures. Bounds are passed on as bounds.

The target in one data set is T1, human DGAT1 (Homo sapiens, UniProt O75907).
T1 construct: made in house; host or cells: insect cells (sf9, sf21 or High Five) infected with baculovirus; total cell membranes
T1 sequence (O75907 1-488): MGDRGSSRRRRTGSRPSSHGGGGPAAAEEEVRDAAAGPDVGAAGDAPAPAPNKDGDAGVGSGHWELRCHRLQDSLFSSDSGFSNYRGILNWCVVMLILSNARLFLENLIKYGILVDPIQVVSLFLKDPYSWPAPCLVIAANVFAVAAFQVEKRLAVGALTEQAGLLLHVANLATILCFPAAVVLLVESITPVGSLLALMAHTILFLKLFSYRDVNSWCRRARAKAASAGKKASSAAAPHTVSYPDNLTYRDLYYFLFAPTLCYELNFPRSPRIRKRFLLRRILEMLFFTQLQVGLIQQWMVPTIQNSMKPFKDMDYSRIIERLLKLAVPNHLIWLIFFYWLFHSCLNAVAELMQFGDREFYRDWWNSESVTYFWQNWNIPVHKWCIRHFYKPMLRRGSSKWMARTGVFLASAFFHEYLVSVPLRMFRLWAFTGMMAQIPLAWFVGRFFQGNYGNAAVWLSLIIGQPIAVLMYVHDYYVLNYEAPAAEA
The data set is described as follows: DGAT Scintillation Proximity Assay (SPA) with membranes of insect cells expressing human flagtag DGAT1. Conditions: read-out: hDGAT1 IC50. The data set is classed as biochemical. In short, it runs like this: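 Membranes (0.2 μg/well) from insect cells expressing human flag-tagged DGAT1 incubated with 10 μM compound and 200 μM dioleoyl glycerol substrate; mercuric chloride as inhibition control. Reaction stopped with WGA SPA beads in mercuric chloride, overnight bead coupling, then scintillation proximity signal read.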
A general note: SPA uses beads or plates that emit light when radiolabelled molecules are held near them.

With `CC1(C)Oc2ncnc(N)c2NC1(C)c1ccc(C2CCCCC2)cc1` (stereo not shown) [Example 2-75], the melting point lay in the range of 244 to 245 °C. Further, the IC50 on human DGAT1 was more than 100 nM.
In the case of `CC1(C)Oc2ncnc(N)c2NC1c1ccc(C2CCCCC2)cc1` (stereo not shown) [Example 2-22], the melting point was more than 230 °C. Moreover, the 50% inhibitory concentration (IC50) on human DGAT1 was more than 100 nM.
On the same counts, the results for `Cc1nc(N)c2c(n1)OC(C)(C)C(c1ccc([C@H]3CC[C@H](C[S+]([O-])CC(=O)O)CC3)cc1)=N2` (stereo partly shown) [Example 2-262] are more than 166 °C and 10 to 100 nM.
Take `Cc1nc(N)c2c(n1)OC(C)(C)C(c1ccc([C@H]3CC[C@H](CC(=O)N(C)CC(N)=O)CC3)cc1)=N2` [Example 2-144]: the melting point was more than 230 °C. For the same compound, the IC50 on human DGAT1 lay within 10 to 100 nM.
`CC1(C)Oc2ncnc(N)c2N=C1c1ccc([C@H]2CC[C@H](NS(C)(=O)=O)CC2)cc1` [Example 2-210]: the melting point is more than 250 °C. Moreover, the IC50 at human DGAT1 lay in the range of 10 to 100 nM.
`Cc1nc(N)c2c(n1)OC(C)(C)C(c1ccc([C@H]3CC[C@H](CC(=O)O)CC3)c(N3CCCC3=O)c1)=N2` [Example 6-4]: the melting point was 177 °C (dec.). Besides, the concentration for half-maximal inhibition (IC50) at human DGAT1 was more than 100 nM.
The compound `CC1(C)Oc2ncnc(N)c2N=C1c1ccc([C@H]2CC[C@H](CN3CCCC3)CC2)cc1` [Example 2-229] showed a melting point of 160 to 162 °C. In addition, the IC50 at human DGAT1 is more than 100 nM.
On the same counts, the results for `CC1(C)Oc2ncnc(N)c2N=C1c1ccc([C@H]2CC[C@H](C(=O)N3CCC(C(=O)O)CC3)CC2)cc1` [Example 2-207] are more than 250 °C and 10 to 100 nM.
The compound `Cc1nc(N)c2c(n1)OC(C)(C)C(c1ccc([C@H]3CC[C@H](C(=O)NS(C)(=O)=O)CC3)cc1)=N2` [Example 2-256] showed a melting point of 172 to 175 °C. The concentration for half-maximal inhibition (IC50) at human DGAT1 fell in the range of 10 to 100 nM.
The like results for `Cc1nc(N)c2c(n1)OC(C)(C)C(c1ccc([C@H]3CC[C@H](CSCC(=O)O)CC3)cc1)=N2` [Example 2-259] were, in that order, 271 to 277 °C and 10 to 100 nM.
The like results for `CC(C)(NC(=O)[C@H]1CC[C@H](c2ccc(C3=Nc4c(N)ncnc4OC3(C)C)cc2)CC1)C(=O)O` [Example 2-212] were, in that order, more than 250 °C and less than 10 nM.
`Cc1nc(N)c2c(n1)OC(C)(C)C(c1ccc([C@H]3CC[C@H](Cc4nc(=O)[nH]n4C)CC3)cc1)=N2` [Example 2-169] yielded a melting point of more than 230 °C. Also, the IC50 on human DGAT1 fell in the range of 10 to 100 nM.
The like results for `Cc1nc(N)c2c(n1)OC(C)(C)C(c1ccc([C@H]3CC[C@H](CNC(=O)N(C)C)CC3)c(Cl)c1)=N2` [Example 6-16] were, in that order, more than 250 °C and more than 100 nM.
In turn, `CC(=O)N1CCN(C[C@H]2CC[C@H](c3ccc(C4=Nc5c(N)ncnc5OC4(C)C)cc3)CC2)CC1` [Example 2-249] came in with a melting point of 202 to 203 °C. Besides, on human DGAT1, the IC50 lay in the range of 10 to 100 nM.
The compound `CCNS(=O)(=O)C[C@H]1CC[C@H](c2ccc(C3=Nc4c(N)ncnc4OC3(C)C)cc2)CC1` [Example 2-252] displayed a melting point of 209 to 211 °C. For the same compound, the half-inhibitory concentration (IC50) at human DGAT1 was 10 to 100 nM.
The compound `Cc1nc(N)c2c(n1)OC(C)(C)C(c1ccc([C@H]3CC[C@H](CNC(=O)OCC(C)C)CC3)c(Cl)c1)=N2` [Example 6-14] had a melting point of 205 to 209 °C. Moreover, the half-inhibitory concentration (IC50) at human DGAT1 lay within 10 to 100 nM.
`CC1(C)Oc2nccc(N)c2N=C1c1ccc([C@H]2CC[C@H](CC(=O)O)CC2)cc1` [Example 2-117] came in with a melting point of more than 250 °C. Also, the IC50 at human DGAT1 was 10 to 100 nM.
As for `CC1(C)Oc2nc(C(F)(F)F)nc(N)c2N=C1c1ccc([C@H]2CC[C@H](CNC(=O)CO)CC2)c(Cl)c1` [Example 6-24], the melting point fell in the range of 213 to 216 °C. Moreover, the IC50 at human DGAT1 lay in the range of 10 to 100 nM.
`Cc1csc(NC[C@H]2CC[C@H](c3ccc(C4=Nc5c(N)ncnc5OC4(C)C)cc3)CC2)n1` [Example 2-127] gave a melting point of 228 to 230 °C. Further, on human DGAT1, the concentration for half-maximal inhibition (IC50) was 10 to 100 nM.
As for `CC(NC(=O)[C@H]1CC[C@H](c2ccc(C3=Nc4c(N)ncnc4OC3(C)C)cc2)CC1)C(=O)O` (stereo partly shown) [Example 2-211], the melting point is more than 250 °C. Also, the IC50 on human DGAT1 was in the range of 10 to 100 nM.
`COc1ccc(C2=Nc3c(N)ncnc3OC2)cc1` [Example 1-12] showed a melting point of 191 to 193 °C. The IC50 on human DGAT1 was more than 100 nM.
In turn, `CN(CC[C@H]1CC[C@H](c2ccc(C3=Nc4c(N)ncnc4OC3(C)C)cc2)CC1)C(=O)CO` [Example 2-104] had a melting point of 186 to 188 °C. Moreover, the half-maximal inhibitory concentration (IC50) at human DGAT1 is 10 to 100 nM.
For `Cc1nc(N)c2c(n1)OC(C)(C)C(c1ccc([C@H]3CC[C@H](CCc4nc(=O)on4C)CC3)cc1)=N2` [Example 2-197], the melting point is 250 °C (dec.). At human DGAT1, the IC50 is 10 to 100 nM.
Compound `CC1(C)Oc2nc(C(F)(F)F)nc(N)c2N=C1c1ccc([C@H]2CC[C@H](CN3CCOC3=O)CC2)c(Cl)c1` [Example 6-21] yielded a melting point of more than 250 °C. Also, the concentration for half-maximal inhibition (IC50) at human DGAT1 was in the range of 10 to 100 nM.
On the same counts, the results for `Cc1nc(N)c2c(n1)OC(C)(C)C(c1ccc([C@H]3CC[C@H](C(=O)NC(C)(C)CO)CC3)cc1)=N2` [Example 2-257] are 220 to 225 °C and 10 to 100 nM.
`CC1(C)Oc2ncnc(N)c2N=C1c1ccc([C@H]2CC[C@H](CCc3cc(O)[nH]n3)CC2)cc1` [Example 2-172] displayed a melting point of more than 250 °C. Also, the IC50 on human DGAT1 lay within 10 to 100 nM.
With `CC1(C)Oc2ncnc(N)c2NC1c1ccccc1` (stereo not shown) [Example 2-8], the melting point was more than 220 °C. Also, on human DGAT1, the IC50 was more than 100 nM.
Take `Cc1nc(N)c2c(n1)OC(C)(C)C(c1ccc([C@H]3CC[C@H](CS(=O)(=O)CC(=O)O)CC3)cc1)=N2` [Example 2-261]: the melting point lay within 225 to 227 °C. Further, the IC50 at human DGAT1 is 10 to 100 nM.
As to `CC1(C)Oc2ncnc(N)c2N=C1c1ccc(C2(C)CCC(CC(=O)O)CC2)cc1` (stereo not shown) [Example 2-67], the melting point is more than 250 °C. Further, the IC50 at human DGAT1 fell in the range of 10 to 100 nM.
